Laboratory results as given in patent US20140128385A1 (NOVARTIS AG, priority 2011, published 2014).
Structures can show the parent of a compound that is named as a salt.

These molecules were tested against T1, BACE-2 (Homo sapiens, UniProt Q9Y5Z0) (assay: assay for inhibition of BACE-2).
T1 construct: Recombinant BACE-2 (extracellular domain, expressed in baculovirus and purified using standard methods); made in house
T1 sequence (Q9Y5Z0 63-473 limits assumed): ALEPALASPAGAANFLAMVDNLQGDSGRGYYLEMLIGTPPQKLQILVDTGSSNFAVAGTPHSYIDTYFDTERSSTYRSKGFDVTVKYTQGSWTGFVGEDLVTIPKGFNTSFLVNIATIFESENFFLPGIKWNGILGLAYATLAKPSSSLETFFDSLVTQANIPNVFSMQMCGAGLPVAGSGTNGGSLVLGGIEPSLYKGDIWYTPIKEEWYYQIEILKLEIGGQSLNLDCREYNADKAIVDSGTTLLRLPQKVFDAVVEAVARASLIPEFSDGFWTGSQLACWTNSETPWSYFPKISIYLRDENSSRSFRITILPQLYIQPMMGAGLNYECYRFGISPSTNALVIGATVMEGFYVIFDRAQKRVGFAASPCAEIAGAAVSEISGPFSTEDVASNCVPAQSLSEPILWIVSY
Type: biochemical

**Q.** How did the IC50 turn out when `CCc1nc(C(=O)Nc2ccc(F)c([C@]3(C(F)F)COCC(N)=N3)c2)co1` [Example 131] was run?
**A.** 0.067 µM

**Q.** For `NC1=N[C@@](c2cc(NC(=O)c3ccc(C(F)F)cn3)ccc2F)(C(F)F)COC1` [Example 132], which IC50 is on record?
**A.** 0.18 µM

**Q.** `Cn1ccnc1C(=O)Nc1ccc(F)c([C@]2(C(F)F)COCC(N)=N2)c1` [Example 133] was tested. Which IC50 did it give?
**A.** 0.573 µM

**Q.** How did the IC50 turn out when `NC1=N[C@@](c2cc(NC(=O)c3ccc(O)nn3)ccc2F)(C(F)F)COC1` [Example 134] was run?
**A.** 0.844 µM

**Q.** With `COCCOc1cnc(C(=O)Nc2ccc(F)c([C@]3(C(F)F)COCC(N)=N3)c2)cn1` [Example 135] as the molecule, how does the IC50 read?
**A.** 1.09 µM

**Q.** How did the IC50 turn out when `NC1=N[C@@](c2cc(NC(=O)c3cnc(OCCF)cn3)ccc2F)(C(F)F)COC1` [Example 136] was run?
**A.** 1.14 µM

**Q.** `NC1=N[C@@](c2cc(NC(=O)c3ccc(Cl)cn3)ccc2F)(C(F)F)COC1` [Example 137] was tested. Which IC50 did it give?
**A.** 0.018 µM

**Q.** Which IC50 does the source give for `NC1=N[C@@](c2cc(NC(=O)c3ccc(OC(F)F)cn3)ccc2F)(C(F)F)COC1` [Example 138] here?
**A.** 0.458 µM

**Q.** How did the IC50 turn out when `NC1=N[C@@](c2cc(NC(=O)c3ccc(OCF)cn3)ccc2F)(C(F)F)COC1` [Example 139] was run?
**A.** 0.106 µM

**Q.** `NC1=N[C@@](c2cc(NC(=O)c3ncc(Cl)cc3F)ccc2F)(C(F)F)COC1` [Example 140] was tested. Which IC50 did it give?
**A.** 0.015 µM

**Q.** For `NC1=N[C@@](c2cc(NC(=O)c3cnc(Cl)cn3)ccc2F)(C(F)F)COC1` [Example 141], which IC50 is on record?
**A.** 0.043 µM

**Q.** `Cc1cc(C(=O)Nc2ccc(F)c([C@]3(C(F)F)COCC(N)=N3)c2)n[nH]1` [Example 142] was tested. Which IC50 did it give?
**A.** 0.522 µM

**Q.** `Cc1ccc(C(=O)Nc2ccc(F)c([C@]3(C(F)F)COCC(N)=N3)c2)nc1` [Example 143] was tested. Which IC50 did it give?
**A.** 0.066 µM

**Q.** For `Cc1cc(C#N)cnc1C(=O)Nc1ccc(F)c([C@]2(C(F)F)COCC(N)=N2)c1` [Example 144], which IC50 is on record?
**A.** 0.051 µM

**Q.** How did the IC50 turn out when `NC1=N[C@@](c2cc(NC(=O)c3cnc(O)cn3)ccc2F)(C(F)F)COC1` [Example 145] was run?
**A.** 0.697 µM

**Q.** With `Cl.[2H]c1nc(C(=O)Nc2ccc(F)c([C@]3(C(F)F)COCC(N)=N3)c2)c(C([2H])([2H])[2H])c([2H])c1C#N` [Example 147] as the molecule, how does the IC50 read?
**A.** 0.165 µM

**Q.** How did the IC50 turn out when `Cc1nc(C(=O)Nc2ccc(F)c([C@]3(C(F)F)COCC(N)=N3)c2)cs1` [Example 148] was run?
**A.** 0.287 µM

**Q.** Which IC50 does the source give for `Cc1cnc(C(=O)Nc2ccc(F)c([C@]3(C(F)F)COCC(N)=N3)c2)s1` [Example 149] here?
**A.** 0.476 µM

**Q.** `Cn1ccc(C(=O)Nc2ccc(F)c([C@]3(C(F)F)COCC(N)=N3)c2)n1` [Example 150] was tested. Which IC50 did it give?
**A.** 0.061 µM

**Q.** Which IC50 does the source give for `Cn1cc([N+](=O)[O-])c(C(=O)Nc2ccc(F)c([C@]3(C(F)F)COCC(N)=N3)c2)n1` [Example 151] here?
**A.** 0.376 µM

**Q.** With `C[C@@]1(c2cc(NC(=O)c3ncc(Cl)cc3N)ccc2F)CO[C@@](C)(C(F)(F)F)C(N)=N1` [Example 153, 3-Amino-5-chloro-pyridine-2-carboxylic acid [3-((3R,6R)-5-amino-3,6-dimethyl-6-trifluoromethyl-3,6-dihydro-2H-[1,4]oxazin-3-yl)-4-fluoro-phenyl]-amide hydrochloride] as the molecule, how does the IC50 read?
**A.** 0.003 µM

**Q.** With `CC1(c2cc(NC(=O)c3ncc(C(F)(F)F)cc3Cl)ccc2F)N=C(N)COCC1(F)F` (stereo not shown) [Example 154, 3-Chloro-5-trifluoromethyl-pyridine-2-carboxylic acid [3-(3-amino-6,6-difluoro-5-methyl-2,5,6,7-tetrahydro-[1,4]oxazepin-5-yl)-4-fluoro-phenyl]-amide] as the molecule, how does the IC50 read?
**A.** 0.408 µM

**Q.** For `COc1cc(Br)cnc1C(=O)Nc1ccc(F)c(C2(C)N=C(N)COCC2(F)F)c1` (stereo not shown) [Example 155, 5-Bromo-3-methoxy-pyridine-2-carboxylic acid [3-(3-amino-6,6 difluoro-5-methyl-2,5,6,7 tetrahydro-[1,4]oxazepin-5-yl)-4 fluoro-phenyl]-amide], which IC50 is on record?
**A.** 0.043 µM

**Q.** With `CC1(c2cc(NC(=O)c3ccc(C#N)cn3)ccc2F)N=C(N)COCC1(F)F` (stereo not shown) [Example 156, 5-Cyano-pyridine-2-carboxylic acid [3-(3-amino-6,6-difluoro-5 methyl-2,5,6,7-tetrahydro[1,4]oxazepin-5-yl)-4 fluoro-phenyl]-amide] as the molecule, how does the IC50 read?
**A.** 0.09 µM

**Q.** How did the IC50 turn out when `NC1=N[C@@](c2cc(NC(=O)c3cc4cncnc4[nH]3)ccc2F)(C(F)F)COC1` [Example 157, 7H-Pyrrolo[2,3-d]pyrimidine-6-carboxylic acid [3-((R)-5-amino-3-difluoromethyl-3,6-dihydro-2H-[1,4]oxazin-3-yl)-4-fluoro-phenyl]-amide hydrochloride] was run?
**A.** > 10 µM

**Q.** Which IC50 does the source give for `COCCOc1cnc(C(=O)Nc2ccc(F)c([C@]3(C(F)F)COCC(N)=N3)c2)c(N)n1` [Example 158, 3-Amino-5-(2-methoxy-ethoxy)-pyrazine-2-carboxylic acid [3-((R)-5-amino-3-difluoromethyl-3,6-dihydro-2H-[1,4]oxazin-3-yl)-4-fluoro-phenyl]-amide] here?
**A.** 3.38 µM

**Q.** For `CCc1ccc(C(=O)Nc2ccc(F)c([C@]3(C(F)F)COCC(N)=N3)c2)nc1` [Example 159, hydrochloride], which IC50 is on record?
**A.** 0.119 µM

**Q.** `NC1=N[C@@](c2cc(NC(=O)c3ncc(Cl)cc3N)ccc2F)(C(F)F)COC1` [Example 160, 3-Amino-5-chloro-pyridine-2-carboxylic acid [3-((R)-5-amino-3-difluoromethyl-3,6-dihydro-2H-[1,4]oxazin-3-yl)-4-fluoro-phenyl]-amide hydrochloride] was tested. Which IC50 did it give?
**A.** 0.008 µM

**Q.** With `COc1cnc(C(=O)Nc2ccc(F)c([C@]3(C(F)F)COCC(N)=N3)c2)c(Cl)c1` [Example 161, 3-Chloro-5-methoxy-pyridine-2-carboxylic acid [3-((R)-5-amino-3-difluoromethyl-3,6-dihydro-2H-[1,4]oxazin-3-yl)-4-fluoro-phenyl]-amide] as the molecule, how does the IC50 read?
**A.** 0.082 µM

**Q.** For `NC1=N[C@@](c2cc(NC(=O)c3ccc(=O)[nH]c3)ccc2F)(C(F)F)COC1` [Example 162, 6-Oxo-1,6-dihydro-pyridine-3-carboxylic acid [3-((R)-5-amino-3-difluoromethyl-3,6-dihydro-2H-[1,4]oxazin-3-yl)-4-fluoro-phenyl]-amide hydrochloride], which IC50 is on record?
**A.** > 10 µM

**Q.** `NC1=N[C@@](c2cc(NC(=O)c3cc4cccn4cn3)ccc2F)(C(F)F)COC1` [Example 163, Pyrrolo[1,2-c]pyrimidine-3-carboxylic acid [3-((R)-5-amino-3-difluoromethyl-3,6-dihydro-2H-[1,4]oxazin-3-yl)-4-fluoro-phenyl]-amide] was tested. Which IC50 did it give?
**A.** 0.405 µM

**Q.** How did the IC50 turn out when `CC#CCOc1cnc(C(=O)Nc2ccc(F)c([C@]3(C(F)F)COCC(N)=N3)c2)cn1` [Example 164, 5-But-2-ynyloxy-pyrazine-2-carboxylic acid [3-((R)-5-amino-3-difluoromethyl-3,6-dihydro-2H-[1,4]oxazin-3-yl)-4-fluoro-phenyl]-amide hydrochloride] was run?
**A.** 0.076 µM

**Q.** For `NC1=N[C@@](c2cc(NC(=O)c3ncc(Br)cc3N)ccc2F)(C(F)F)COC1` [Example 165, 3-Amino-5-bromo-pyridine-2-carboxylic acid [3-((R)-5-amino-3-difluoromethyl-3,6-dihydro-2H-[1,4]oxazin-3-yl)-4-fluoro-phenyl]-amide hydrochloride], which IC50 is on record?
**A.** 0.005 µM

**Q.** For `CCn1ccnc1C(=O)Nc1ccc(F)c([C@]2(C(F)F)COCC(N)=N2)c1` [Example 166, 1-Ethyl-1H-imidazole-2-carboxylic acid [3-((R)-5-amino-3-difluoromethyl-3,6-dihydro-2H-[1,4]oxazin-3-yl)-4-fluoro-phenyl]-amide hydrochloride], which IC50 is on record?
**A.** 0.378 µM

**Q.** With `C#CCOc1cnc(C(=O)Nc2ccc(F)c([C@]3(C(F)F)COCC(N)=N3)c2)cn1` [Example 167, 5-Prop-2-ynyloxy-pyrazine-2-carboxylic acid [3-((R)-5-amino-3-difluoromethyl-3,6-dihydro-2H-[1,4]oxazin-3-yl)-4-fluoro-phenyl]-amide hydrochloride] as the molecule, how does the IC50 read?
**A.** 0.172 µM

**Q.** How did the IC50 turn out when `Cc1nc(C(=O)Nc2ccc(F)c([C@]3(C(F)F)COCC(N)=N3)c2)c(N)o1` [Example 168, 5-Amino-2-methyl-oxazole-4-carboxylic acid [3-((R)-5-amino-3-difluoromethyl-3,6-dihydro-2H-[1,4]oxazin-3-yl)-4-fluoro-phenyl]-amide hydrochloride] was run?
**A.** 0.035 µM

**Q.** With `NC1=N[C@@](c2cc(NC(=O)c3ncc(Cl)cc3O)ccc2F)(C(F)F)COC1` [Example 169, 5-Chloro-3-hydroxy-pyridine-2-carboxylic acid [3-((R)-5-amino-3-difluoromethyl-3,6-dihydro-2H-[1,4]oxazin-3-yl)-4-fluoro-phenyl]-amide] as the molecule, how does the IC50 read?
**A.** 0.004 µM

**Q.** How did the IC50 turn out when `CC(C)Oc1cnc(C(=O)Nc2ccc(F)c([C@]3(C(F)F)COCC(N)=N3)c2)cn1` [Example 170, 5-Isopropoxy-pyrazine-2-carboxylic acid [3-((R)-5-amino-3-difluoromethyl-3,6-dihydro-2H-[1,4]oxazin-3-yl)-4-fluoro-phenyl]-amide] was run?
**A.** 2.71 µM

**Q.** For `CCOc1cnc(C(=O)Nc2ccc(F)c([C@]3(C(F)F)COCC(N)=N3)c2)cn1` [Example 171, 5-Ethoxy-pyrazine-2-carboxylic acid [3-((R)-5-amino-3-difluoromethyl-3,6-dihydro-2H-[1,4]oxazin-3-yl)-4-fluoro-phenyl]-amide], which IC50 is on record?
**A.** 0.2 µM

**Q.** With `Cc1c(C(=O)Nc2ccc(F)c([C@]3(C(F)F)COCC(N)=N3)c2)oc2ccc(CN(C)C)cc12` [Example 172, 5-Dimethylaminomethyl-3-methyl-benzofuran-2-carboxylic acid [3-((R)-5-amino-3-difluoromethyl-3,6-dihydro-2H-[1,4]oxazin-3-yl)-4-fluoro-phenyl]-amide hydrochloride] as the molecule, how does the IC50 read?
**A.** 0.007 µM
